Literature values in US10357461B2, “Physically dispersed, molecularly dissolved and/or chemically bound drug(s) in an empty, hard capsule shell composition” (priority 2005, dated 2019).
Converted amounts (≈) assume the structure as drawn.

Legend:
[1] = people taking metformin

COc1cc2c(c(OC)c1OC)-c1ccc(OC)c(=O)cc1[C@@H](NC(C)=O)CC2 [Colchicine]
solubility in water (water): 7000 µg/mL (≈ 17.5 mM)

C[C@]12CCC(=O)C=C1[C@@H]1C[C@@H]1[C@H]1[C@@H]3[C@@H]4C[C@@H]4[C@@]4(CCC(=O)O4)[C@@]3(C)CC[C@@H]12 [Drospirenone]
water solubility (water at 25° C.): 1.8 µg/mL (≈ 0.00491 mM)

CN(C)C(=N)N=C(N)N [metformin]
people taking the drug who face vitamin B12 deficiency [1]: ~30%
